Measurements published in patent publication US20250228836A1, “BILASTINE COMPOSITION FOR ONCE-DAILY PARENTERAL ADMINISTRATION” (FAES FARMA, S.A., priority 2022, published 2025).
Values after ≈ are worked out from the molar mass of the structure shown.

Key:
[1] = pH 5-8; cited from earlier work
[2] = Solubility of bilastine vs. HPβCD concentration and pH; type: physicochemical; details: aqueous HPβCD solution, thermodynamic from solid
Experimental: The concentration of bilastine in the solubility tests was determined by UV/vis spectrophotometer was a Cary® 60 UV-VIS.
The solubility of bilastine was determined at different concentrations of HPβCD and pH values.
The desired amount of HPβCD was dispersed in 40 ml of purified water in a 50 ml flask until complete dissolution and further diluted with water up to a final volume of 50 ml. Each solution was divided into three solutions (15 ml each) and the pH was adjusted with HCl 37% to the desired values (3, 5 or 7, respectively). Each solution was transferred again into three vials (5 mL solution each) in order to have several replicates for each sample. Bilastine was added in excess to each vial and the solutions were kept under magnetic stirring for 24 hours. After that time, the pH was adjusted again and they were kept stirring for another 24 hours. Finally, the samples were filtered through 0.45 μm filters (Biofil®, Nylon membrane, 13 mm Ø), the final pH was checked and the concentration was determined by UV spectrophotometry at a wavelength of 254 nm. The statistical analysis of the results was carried out using the Centurion XVI Statgraphics program version 16.1.15.

**Q.** With CCOCCn1c(C2CCN(CCc3ccc(C(C)(C)C(=O)O)cc3)CC2)nc2ccccc21 [Bilastine, 2-[4-(2-{4-[1-(2-ethoxyethyl)-1H-benzimidazol-2-yl]-1-piperidinyl}ethyl)phenyl]-2-methylpropanoic acid] as the compound, how does the “water solubility of bilastine” value [1] read?
**A.** about 0.5 mg/ml

**Q.** What about the solubility at 48 h ([2]; aqueous with cosolvent or surfactant or cyclodextrin, Entry 3: HPβCD 30 % w/v, final pH 4.14) of the same compound?
**A.** 37.8 mg/mL (≈ 81.5 mM)

**Q.** And the solubility at 48 h ([2]; aqueous with cosolvent or surfactant or cyclodextrin, Entry 4: HPβCD 20 % w/v, final pH 5.16)?
**A.** 18.4 mg/mL (≈ 39.6 mM)

**Q.** And the solubility at 48 h ([2]; aqueous with cosolvent or surfactant or cyclodextrin, Entry 5: HPβCD 30 % w/v, final pH 5.13)?
**A.** 27.2 mg/mL (≈ 58.7 mM)

**Q.** What about the solubility at 48 h ([2]; aqueous with cosolvent or surfactant or cyclodextrin, Entry 6: HPβCD 30 % w/v, final pH 7.15) of the same compound?
**A.** 16.9 mg/mL (≈ 36.5 mM)

**Q.** What about the solubility at 48 h ([2]; pH 4.6, aqueous with cosolvent or surfactant or cyclodextrin, Entry 2: HPβCD 20 % w/v, final pH 4.60) of the same compound?
**A.** 35.1 mg/mL (≈ 75.7 mM)

**Q.** What about the solubility at 48 h ([2]; pH 4.7, aqueous with cosolvent or surfactant or cyclodextrin, Entry 1: HPβCD 10 % w/v, final pH 4.70) of the same compound?
**A.** 18.3 mg/mL (≈ 39.4 mM)
